Measured values published in US9315486B2, “Therapeutic cyclopentanols, compositions thereof, and methods for use thereof” (Allergan, Inc., priority 2013, dated 2016).
pEC50: −log10 of the molar value.

What was measured:
[1] = target: T1, DP (Homo sapiens, UniProt Q13258); assay: DP activity study; type: cell-based
T1 sequence (Q13258 1-359): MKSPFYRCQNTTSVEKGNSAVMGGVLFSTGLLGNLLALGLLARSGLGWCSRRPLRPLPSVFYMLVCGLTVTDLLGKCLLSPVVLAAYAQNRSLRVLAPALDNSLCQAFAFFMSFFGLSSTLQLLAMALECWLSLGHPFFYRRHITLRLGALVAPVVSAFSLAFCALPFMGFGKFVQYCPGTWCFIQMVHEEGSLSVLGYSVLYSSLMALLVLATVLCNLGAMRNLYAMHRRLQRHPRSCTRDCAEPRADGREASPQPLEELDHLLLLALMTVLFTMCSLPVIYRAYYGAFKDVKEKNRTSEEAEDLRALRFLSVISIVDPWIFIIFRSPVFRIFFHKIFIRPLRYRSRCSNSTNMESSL
Experimental: (§1) Data from running binding and activity studies on the compounds of the invention were carried out as described in U.S. Pat. No. 7,427,685, the contents of which are incorporated herein by reference.

[2] = target: T2, EP2 (Homo sapiens, UniProt P43116); assay: EP2 cAMP activity study; type: cell-based
Experimental: as §1

[3] = target: T2, EP2; assay: EP2 Ca2+ signal activity study; type: cell-based
Experimental: as §1

[4] = target: T2, EP2; assay: EP2 binding study
Experimental: as §1

[5] = target: T3, EP4 (Homo sapiens, UniProt P35408); assay: EP4 Ca2+ signal activity study; type: cell-based
Experimental: as §1

[6] = target: T3, EP4; assay: EP4 binding study
Experimental: as §1

[7] = target: T4, EP1 (Homo sapiens, UniProt P34995); assay: EP1 activity study; type: cell-based
T4 sequence (P34995 1-402): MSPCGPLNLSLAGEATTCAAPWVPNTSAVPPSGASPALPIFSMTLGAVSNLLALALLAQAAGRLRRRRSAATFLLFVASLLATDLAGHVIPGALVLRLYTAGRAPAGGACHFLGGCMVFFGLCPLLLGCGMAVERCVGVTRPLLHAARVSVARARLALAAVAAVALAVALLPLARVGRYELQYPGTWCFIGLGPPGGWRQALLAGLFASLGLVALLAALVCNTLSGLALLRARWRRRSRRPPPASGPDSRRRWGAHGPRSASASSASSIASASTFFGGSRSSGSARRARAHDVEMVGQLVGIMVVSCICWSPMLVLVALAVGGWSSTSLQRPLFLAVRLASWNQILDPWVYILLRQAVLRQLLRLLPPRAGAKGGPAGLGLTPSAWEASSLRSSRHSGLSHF
Experimental: as §1

[8] = target: T5, EP3 (Homo sapiens, UniProt P43115); assay: EP3 activity study; type: cell-based
T5 sequence (P43115 1-390): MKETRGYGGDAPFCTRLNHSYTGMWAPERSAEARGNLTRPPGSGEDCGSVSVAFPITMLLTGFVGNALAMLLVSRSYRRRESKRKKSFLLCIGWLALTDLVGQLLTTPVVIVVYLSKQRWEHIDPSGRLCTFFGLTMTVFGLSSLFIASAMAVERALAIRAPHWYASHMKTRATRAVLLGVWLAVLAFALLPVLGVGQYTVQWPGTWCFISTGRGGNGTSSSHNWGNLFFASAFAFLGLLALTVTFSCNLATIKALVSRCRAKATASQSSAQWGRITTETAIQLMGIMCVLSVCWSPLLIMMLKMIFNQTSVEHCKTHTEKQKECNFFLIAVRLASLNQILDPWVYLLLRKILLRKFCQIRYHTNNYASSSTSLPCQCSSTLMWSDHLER
Experimental: as §1

[9] = target: T6, TP (Homo sapiens, UniProt P21731); assay: TP activity study; type: cell-based
T6 sequence (P21731 1-343): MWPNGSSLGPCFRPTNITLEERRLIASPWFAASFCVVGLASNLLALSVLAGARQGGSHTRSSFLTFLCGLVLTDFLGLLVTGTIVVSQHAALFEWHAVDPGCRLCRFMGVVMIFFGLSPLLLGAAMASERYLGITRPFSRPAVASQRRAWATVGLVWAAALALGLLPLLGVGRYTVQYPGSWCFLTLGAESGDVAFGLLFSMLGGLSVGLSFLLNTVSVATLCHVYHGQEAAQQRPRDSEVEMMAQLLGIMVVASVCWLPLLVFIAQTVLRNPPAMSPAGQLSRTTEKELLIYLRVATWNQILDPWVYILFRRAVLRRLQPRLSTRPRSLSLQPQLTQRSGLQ
Experimental: as §1

T3 sequence (P35408 whole entry): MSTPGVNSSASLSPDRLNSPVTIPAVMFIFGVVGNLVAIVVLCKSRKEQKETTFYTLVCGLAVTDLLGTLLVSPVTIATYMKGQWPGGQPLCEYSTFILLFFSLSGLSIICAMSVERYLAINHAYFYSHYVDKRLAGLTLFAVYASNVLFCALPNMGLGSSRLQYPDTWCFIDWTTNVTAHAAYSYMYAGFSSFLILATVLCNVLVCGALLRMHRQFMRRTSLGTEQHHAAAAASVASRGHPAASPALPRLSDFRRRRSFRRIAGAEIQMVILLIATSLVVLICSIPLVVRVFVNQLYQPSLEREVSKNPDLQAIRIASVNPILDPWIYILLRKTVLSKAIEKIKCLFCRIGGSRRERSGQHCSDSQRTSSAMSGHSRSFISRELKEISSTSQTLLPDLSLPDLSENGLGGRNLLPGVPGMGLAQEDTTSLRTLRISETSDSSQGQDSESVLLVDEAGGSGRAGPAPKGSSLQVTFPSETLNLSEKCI
T2 sequence (P43116 whole entry): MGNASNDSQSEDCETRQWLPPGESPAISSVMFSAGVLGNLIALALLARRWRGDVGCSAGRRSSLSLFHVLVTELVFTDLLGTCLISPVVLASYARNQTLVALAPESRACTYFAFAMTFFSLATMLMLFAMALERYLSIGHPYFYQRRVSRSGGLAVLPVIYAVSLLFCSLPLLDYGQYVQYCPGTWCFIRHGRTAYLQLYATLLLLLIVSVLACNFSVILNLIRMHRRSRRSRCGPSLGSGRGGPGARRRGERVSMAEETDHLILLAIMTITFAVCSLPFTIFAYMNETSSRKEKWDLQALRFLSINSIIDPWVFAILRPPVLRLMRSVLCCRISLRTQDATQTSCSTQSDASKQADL

pEC50 [1] | pEC50 [2] | pEC50 [3] | pEC50 [4] | pEC50 [5] | pEC50 [6] | pEC50 [7] | pEC50 [8] | pEC50 [9] | SMILES
5.65 | 8.52 | 7.57 | 6.15 | 7.64 | 6.36 | 5.91 | 6.16 | 5.32 | CCCC(O)CC(O)/C=C/[C@@H]1[C@@H](CCCc2ccc(C(=O)O)s2)[C@H](Cl)C[C@H]1O (stereo partly shown)
5.47 | 9.40 | 8.40 | 6.83 | 7.17 | 5.95 | 7.00 | 6.89 | 5.12 | O=C(O)c1ccc(CCC[C@@H]2[C@@H](/C=C/[C@@H](O)CCCCCO)[C@H](O)C[C@H]2Cl)s1
5.34 | 8.85 | 7.54 | 6.44 | 6.34 | < 5.00 | 6.68 | 6.65 |  | C[C@@H](O)CCCC[C@H](O)/C=C/[C@@H]1[C@@H](CCCc2ccc(C(=O)O)s2)[C@H](Cl)C[C@H]1O [5-(3-((1R,2R,3R,5R)-5-Chloro-2-((3S 8R,E)-3,8-dihydroxynon-1-en-1-yl)-3-hydroxycyclopentyl)propyl)thiophene-2-carboxylic acid]

Continued, compound first:

SMILES | pEC50 [1] | pEC50 [2] | pEC50 [3] | pEC50 [4] | pEC50 [5] | pEC50 [6] | pEC50 [7] | pEC50 [8] | pEC50 [9]
C[C@@H](O)CCC[C@H](O)/C=C/[C@@H]1[C@@H](CCCc2ccc(C(=O)O)s2)[C@H](Cl)C[C@H]1O | 5.17 |  |  |  |  |  |  |  | 
CCCCC(O)[C@H](O)/C=C/[C@@H]1[C@@H](CCCc2ccc(C(=O)O)s2)[C@H](Cl)C[C@H]1O (stereo partly shown) | 6.05 | 8.64 | 8.05 | 6.83 | 7.35 | 6.31 |  |  | 
C[C@@H](O)CCCC[C@@H](O)/C=C/[C@@H]1[C@@H](CCCc2ccc(C(=O)O)s2)[C@H](Cl)C[C@H]1O [5-(3-((1R,2R,3R,5R)-5-chloro-2-((3R,8R,E)-3,8-dihydroxynon-1-en-1-yl)-3-hydroxycyclopentyl)propyl)thiophene-2-carboxylic acid] |  | 7.85 | 6.48 | 6.44 | < 5.00 | 5.47 | 5.37 | 5.15 | 
